Results taken from PubChem BioAssay AID1963972 (Molecular Pharmacology Branch, DTP, NCI, 2024).
“And” between values parts separate entries of the source, which are not always exact repeats. Identical values can stand only once.

Test system: 945468-187-T-J2-PDC spheroids viability
Assay: Anticancer human tumor 945468-187-T-J2-PDC patient-derived rectal carcinoma cell line growth inhibition [PI3K]
Conditions: spheroids with HUVEC and MSC; for viability, T/C: stronger effect = lower value
How it was run: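 Stroma-containing spheroids: tumor line, pooled-donor HUVEC, hMSC. Treatments: targeted agents with PI3K inhibitors. Dosing: clinically relevant, half-log spacing, 10 microM ceiling without known Cmax. Read-out: cell viability.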

[1] = curve of first compound, second compound 0.00316 µM
[2] = curve of first compound, second compound 0.01 µM
[3] = curve of first compound, second compound 0.0316 µM
[4] = curve of first compound, second compound 0.1 µM
[5] = curve of first compound, second compound 0.316 µM
[6] = curve of first compound, second compound 1 µM
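Also: spheroids exposed to compounds for seven days before reading.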

Cn1cnc2c(F)c(Nc3ccc(Br)cc3Cl)c(C(=O)NOCCO)cc21 + CC(Nc1ccc2c(c1)OCCn1cc(N3C(=O)OCC3C(F)F)nc1-2)C(N)=O
IC50 [1]: > 3 µM | IC50 [2]: > 3 µM | IC50 [3]: > 3 µM | IC50 [4]: > 3 µM | IC50 [5]: > 3 µM | IC50 [6]: 0.714 µM | viability, T/C (second compound 0.00316 µM, first compound 0.00949 µM): 121% | viability, T/C (second compound 0.00316 µM, first compound 0.03 µM): 86.4% | viability, T/C (second compound 0.00316 µM, first compound 0.0949 µM): 114% | viability, T/C (second compound 0.00316 µM, first compound 0.3 µM): 75.8% | viability, T/C (second compound 0.00316 µM, first compound 0.949 µM): 70.7% | viability, T/C (second compound 0.00316 µM, first compound 3 µM): 74.5% | viability, T/C (second compound 0.01 µM, first compound 0.00949 µM): 92.2% | viability, T/C (second compound 0.01 µM, first compound 0.03 µM): 101% | viability, T/C (second compound 0.01 µM, first compound 0.0949 µM): 92.2% | viability, T/C (second compound 0.01 µM, first compound 0.3 µM): 89.4% | viability, T/C (second compound 0.01 µM, first compound 0.949 µM): 74.9% | viability, T/C (second compound 0.01 µM, first compound 3 µM): 78.5% | viability, T/C (second compound 0.0316 µM, first compound 0.00949 µM): 121% | viability, T/C (second compound 0.0316 µM, first compound 0.03 µM): 99.6% | viability, T/C (second compound 0.0316 µM, first compound 0.0949 µM): 112% | viability, T/C (second compound 0.0316 µM, first compound 0.3 µM): 93.7% | viability, T/C (second compound 0.0316 µM, first compound 0.949 µM): 78.8% | viability, T/C (second compound 0.0316 µM, first compound 3 µM): 74.5% | viability, T/C (second compound 0.1 µM, first compound 0.00949 µM): 88.9% | viability, T/C (second compound 0.1 µM, first compound 0.03 µM): 102% | viability, T/C (second compound 0.1 µM, first compound 0.0949 µM): 81.2% | viability, T/C (second compound 0.1 µM, first compound 0.3 µM): 80.4% | viability, T/C (second compound 0.1 µM, first compound 0.949 µM): 75.1% | viability, T/C (second compound 0.1 µM, first compound 3 µM): 74.2% | viability, T/C (second compound 0.316 µM, first compound 0.00949 µM): 69.9% | viability, T/C (second compound 0.316 µM, first compound 0.03 µM): 88.6% | viability, T/C (second compound 0.316 µM, first compound 0.0949 µM): 72.4% | viability, T/C (second compound 0.316 µM, first compound 0.3 µM): 75.6% | viability, T/C (second compound 0.316 µM, first compound 0.949 µM): 75.9% | viability, T/C (second compound 0.316 µM, first compound 3 µM): 66.1% | viability, T/C (second compound 1 µM, first compound 0.00949 µM): 75.7% | viability, T/C (second compound 1 µM, first compound 0.03 µM): 72% | viability, T/C (second compound 1 µM, first compound 0.0949 µM): 72.8% | viability, T/C (second compound 1 µM, first compound 0.3 µM): 65.2% | viability, T/C (second compound 1 µM, first compound 0.949 µM): 45% | viability, T/C (second compound 1 µM, first compound 3 µM): 37.6%

C=CC(=O)N1CCN(c2nc(=O)n(-c3c(C)ccnc3C(C)C)c3nc(-c4c(O)cccc4F)c(F)cc23)C(C)C1 (centres undefined)
viability, T/C (compound 0.1 µM): 104% [middle of 4 runs] | viability, T/C (compound 0.316 µM): 95.7% [middle of 4 runs] | viability, T/C (compound 3.16 µM): 104% (2×) and 113% and 89.9% | viability, T/C (compound 10 µM): 107% [middle of 4 runs] | IC50 (curve of compound): > 10 µM

C[C@@H](NC(=O)c1ncnc(N)c1Cl)c1ncc(C(=O)Nc2cc(C(F)(F)F)c(Cl)cn2)s1 + COc1c(OCCCN2CCOCC2)ccc2c3n(c(=NC(=O)c4cnc(N)nc4)nc12)CCN3
IC50 [1]: > 10 µM | IC50 [2]: > 10 µM | IC50 [3]: > 10 µM | IC50 [4]: > 10 µM | IC50 [5]: < 0.0316 µM | IC50 [6]: < 0.0316 µM | viability, T/C (second compound 0.00316 µM, first compound 0.0316 µM): 109% | viability, T/C (second compound 0.00316 µM, first compound 0.1 µM): 115% | viability, T/C (second compound 0.00316 µM, first compound 0.316 µM): 116% | viability, T/C (second compound 0.00316 µM, first compound 1 µM): 113% | viability, T/C (second compound 0.00316 µM, first compound 3.16 µM): 99.3% | viability, T/C (second compound 0.00316 µM, first compound 10 µM): 102% | viability, T/C (second compound 0.01 µM, first compound 0.0316 µM): 133% | viability, T/C (second compound 0.01 µM, first compound 0.1 µM): 119% | viability, T/C (second compound 0.01 µM, first compound 0.316 µM): 126% | viability, T/C (second compound 0.01 µM, first compound 1 µM): 119% | viability, T/C (second compound 0.01 µM, first compound 3.16 µM): 112% | viability, T/C (second compound 0.01 µM, first compound 10 µM): 125% | viability, T/C (second compound 0.0316 µM, first compound 0.0316 µM): 108% | viability, T/C (second compound 0.0316 µM, first compound 0.1 µM): 94.6% | viability, T/C (second compound 0.0316 µM, first compound 0.316 µM): 111% | viability, T/C (second compound 0.0316 µM, first compound 1 µM): 142% | viability, T/C (second compound 0.0316 µM, first compound 3.16 µM): 96% | viability, T/C (second compound 0.0316 µM, first compound 10 µM): 122% | viability, T/C (second compound 0.1 µM, first compound 0.0316 µM): 94% | viability, T/C (second compound 0.1 µM, first compound 0.1 µM): 102% | viability, T/C (second compound 0.1 µM, first compound 0.316 µM): 94.9% | viability, T/C (second compound 0.1 µM, first compound 1 µM): 95% | viability, T/C (second compound 0.1 µM, first compound 3.16 µM): 92.7% | viability, T/C (second compound 0.1 µM, first compound 10 µM): 92% | viability, T/C (second compound 0.316 µM, first compound 0.0316 µM): 46% | viability, T/C (second compound 0.316 µM, first compound 0.1 µM): 49.3% | viability, T/C (second compound 0.316 µM, first compound 0.316 µM): 50.9% | viability, T/C (second compound 0.316 µM, first compound 1 µM): 57.7% | viability, T/C (second compound 0.316 µM, first compound 3.16 µM): 53.5% | viability, T/C (second compound 0.316 µM, first compound 10 µM): 63.9% | viability, T/C (second compound 1 µM, first compound 0.0316 µM): 24.4% | viability, T/C (second compound 1 µM, first compound 0.1 µM): 26.1% | viability, T/C (second compound 1 µM, first compound 0.316 µM): 25.6% | viability, T/C (second compound 1 µM, first compound 1 µM): 22% | viability, T/C (second compound 1 µM, first compound 3.16 µM): 23.5% | viability, T/C (second compound 1 µM, first compound 10 µM): 26.8%
